Measurements from ChEMBL document CHEMBL4184261, “Activation loop targeting strategy for design of receptor-interacting protein kinase 2 (RIPK2) inhibitors” (Bioorg Med Chem Lett, 2018).
Active and inactive are the calls of the source. The rule behind the calls is not given here.

Key:
[1] = target: Receptor-interacting serine/threonine-protein kinase 2 (Homo sapiens) (UniProt O43353); test: Inhibition of wild type recombinant human His6-tagged RIPK2 at 5 uM using RS repeat peptide substrate incubated for 2 hrs by ADP-Glo assay
[2] = target: Receptor-interacting serine/threonine-protein kinase 2 (Homo sapiens) (UniProt O43353); test: Inhibition of wild type recombinant human His6-tagged RIPK2 at 0.5 uM using RS repeat peptide substrate incubated for 2 hrs by ADP-Glo assay
[3] = target: Receptor-interacting serine/threonine-protein kinase 2 (Homo sapiens) (UniProt O43353); test: Inhibition of wild type recombinant human His6-tagged RIPK2 at 10 uM using RS repeat peptide substrate incubated for 2 hrs by ADP-Glo assay
[4] = tested on: Receptor-interacting serine/threonine-protein kinase 2 (Homo sapiens), O43353 [R171C]; test: Inhibition of recombinant human His6-tagged RIPK2 R171C mutant at 5 uM using RS repeat peptide substrate incubated for 2 hrs by ADP-Glo assay
[5] = species on record: Homo sapiens; test: Selectivity index, ratio of IC50 for recombinant human His6-tagged RIPK2 R171C mutant to IC50 for wild type recombinant human His6-tagged RIPK2
[6] = target: Vascular endothelial growth factor receptor 2 (Homo sapiens) (UniProt P35968); test: Inhibition of N-terminal GST tagged recombinant human KDR (789 to end residues) expressed in baculovirus infected Sf9 cells at 20 uM using poly-E4Y1 substrate incubated for 2 hrs by ADP-Glo assay
[7] = species on record: Homo sapiens; test: Selectivity index, ratio of inhibition of N-terminal GST tagged recombinant human KDR (789 to end residues) expressed in baculovirus infected Sf9 cells to inhibition of wild type recombinant human His6-tagged RIPK2

Chain of Receptor-interacting serine/threonine-protein kinase 2 (Homo sapiens) (O43353 whole entry): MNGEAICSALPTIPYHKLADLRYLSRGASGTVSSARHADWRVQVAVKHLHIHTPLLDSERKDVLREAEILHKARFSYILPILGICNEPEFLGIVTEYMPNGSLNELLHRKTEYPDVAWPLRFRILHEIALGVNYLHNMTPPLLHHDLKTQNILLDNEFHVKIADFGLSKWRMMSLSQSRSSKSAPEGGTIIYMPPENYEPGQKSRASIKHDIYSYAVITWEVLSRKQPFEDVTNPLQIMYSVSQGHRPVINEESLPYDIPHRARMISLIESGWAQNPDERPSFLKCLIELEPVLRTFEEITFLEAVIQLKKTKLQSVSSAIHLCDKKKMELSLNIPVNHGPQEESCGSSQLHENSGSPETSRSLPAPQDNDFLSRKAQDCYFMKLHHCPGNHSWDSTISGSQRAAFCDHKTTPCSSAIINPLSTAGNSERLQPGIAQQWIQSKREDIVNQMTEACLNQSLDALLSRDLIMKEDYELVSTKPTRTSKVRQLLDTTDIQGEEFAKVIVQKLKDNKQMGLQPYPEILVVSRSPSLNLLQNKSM
Chain of Receptor-interacting serine/threonine-protein kinase 2 (Homo sapiens), O43353 [R171C] (O43353 whole entry R171C): as the sequence (O43353 whole entry) above, with R171C counted along it
Chain of Vascular endothelial growth factor receptor 2 (Homo sapiens) (P35968 whole entry): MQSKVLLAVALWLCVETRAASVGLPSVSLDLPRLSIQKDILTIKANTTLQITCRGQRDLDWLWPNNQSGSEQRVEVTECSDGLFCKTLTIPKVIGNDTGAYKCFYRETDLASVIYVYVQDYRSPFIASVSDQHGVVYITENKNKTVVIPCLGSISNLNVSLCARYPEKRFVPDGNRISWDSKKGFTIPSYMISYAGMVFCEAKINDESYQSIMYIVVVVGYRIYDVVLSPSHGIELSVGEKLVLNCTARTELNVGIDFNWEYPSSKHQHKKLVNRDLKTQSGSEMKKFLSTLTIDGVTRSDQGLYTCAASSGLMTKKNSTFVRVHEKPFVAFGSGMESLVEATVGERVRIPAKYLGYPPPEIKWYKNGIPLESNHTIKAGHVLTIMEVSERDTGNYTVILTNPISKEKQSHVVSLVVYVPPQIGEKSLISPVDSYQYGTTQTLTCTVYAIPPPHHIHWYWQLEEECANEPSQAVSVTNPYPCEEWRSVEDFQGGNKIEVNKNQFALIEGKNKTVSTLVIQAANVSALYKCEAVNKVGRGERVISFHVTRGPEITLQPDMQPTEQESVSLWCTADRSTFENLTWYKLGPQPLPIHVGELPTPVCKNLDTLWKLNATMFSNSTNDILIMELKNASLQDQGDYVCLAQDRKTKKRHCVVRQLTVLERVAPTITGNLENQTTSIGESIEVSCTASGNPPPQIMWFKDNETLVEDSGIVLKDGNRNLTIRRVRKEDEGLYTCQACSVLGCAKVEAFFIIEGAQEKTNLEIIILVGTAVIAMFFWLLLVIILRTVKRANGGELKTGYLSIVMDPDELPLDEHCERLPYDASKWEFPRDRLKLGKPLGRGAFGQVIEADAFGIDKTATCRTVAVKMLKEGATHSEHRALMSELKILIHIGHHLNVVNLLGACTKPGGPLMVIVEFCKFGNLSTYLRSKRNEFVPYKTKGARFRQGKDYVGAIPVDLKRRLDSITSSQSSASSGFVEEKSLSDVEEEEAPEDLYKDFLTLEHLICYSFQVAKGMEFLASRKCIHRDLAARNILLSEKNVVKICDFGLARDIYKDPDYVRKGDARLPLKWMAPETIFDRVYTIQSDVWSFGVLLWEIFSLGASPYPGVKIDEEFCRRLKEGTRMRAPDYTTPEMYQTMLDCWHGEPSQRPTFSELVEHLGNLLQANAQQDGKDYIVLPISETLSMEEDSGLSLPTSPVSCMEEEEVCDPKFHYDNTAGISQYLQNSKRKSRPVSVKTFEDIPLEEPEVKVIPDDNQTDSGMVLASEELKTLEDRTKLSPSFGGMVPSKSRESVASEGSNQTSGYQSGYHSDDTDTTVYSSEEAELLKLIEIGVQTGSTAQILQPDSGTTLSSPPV

| Structure (SMILES) | inhibition [1] | inhibition [2] | also measured |
| --- | --- | --- | --- |
| CNC(=O)c1cc(Oc2ccc(NC(=O)Nc3cccc(C(C)(C)C(=O)O)c3)c(F)c2)ccn1 | 47% |  |  |
| CNC(=O)c1cc(Oc2ccc(NC(=O)Nc3ccc(C(=O)O)cc3)c(F)c2)ccn1 |  | inactive |  |
| CNC(=O)c1cc(Oc2ccc(NC(=O)Nc3cccc(CCN)c3)c(F)c2)ccn1 |  | 12% |  |
| CNC(=O)c1cc(Oc2ccc(NC(=O)Nc3cccc(C(C)(C)N)c3)c(F)c2)ccn1 |  | 32% |  |
| CNC(=O)c1cc(Oc2ccc(NC(=O)Nc3ccc(N4CC(=O)NS4(=O)=O)c(C)c3)c(F)c2)ccn1 |  | 1% |  |
| Nc1ccc(SCC(=O)O)c(F)c1 |  |  | inhibition [3]: 10% |
| CNC(=O)c1cc(Oc2ccc(NC(=O)Nc3cccc(C(=O)O)c3)c(F)c2)ccn1 |  | inactive |  |
| CNC(=O)c1cc(Oc2ccc(NC(=O)Nc3ccc(OCCS(C)(=O)=O)c(C)c3)c(F)c2)ccn1 |  | 35% |  |
| CNC(=O)c1cc(Oc2ccc(NC(=O)Nc3cccc(SCC(=O)O)c3)c(F)c2)ccn1 | 25% |  |  |
| CNC(=O)c1cc(Oc2ccc(NC(=O)Nc3ccc(CC(=O)O)cc3)c(F)c2)ccn1 | 18% |  |  |
| CNC(=O)c1cc(Oc2ccc(NC(=O)Nc3cccc(CC(=O)O)c3)c(F)c2)ccn1 | inactive |  | inhibition [4]: inactive |
| CNC(=O)c1cc(Oc2ccc(NC(=O)Nc3ccc(SCC(=O)O)c(F)c3)c(F)c2)ccn1 | 70% |  | inhibition [4]: 64%; Ratio IC50 [5]: 2; inhibition [6]: 35.8%; Selectivity Index [7]: > 10 |
| CNC(=O)c1cc(Oc2ccc(NC(=O)Nc3ccc(SCC(=O)O)cc3)c(F)c2)ccn1 | 27% |  | inhibition [4]: 17% |
